Measurements from patent US20100041597A1, “PEPTIDES TARGETED TO PROTEIN KINASE C ISOFORMS AND USES THEREOF” (priority 2005, published 2010).
Values belong to the compound of their own block, whether it stands above or below them. Where no end group is shown, it is not given here.

Assays:
PKC-α [1] = biological target: T1, PKC-α (Homo sapiens, UniProt P17252); experiment: In vitro competition with anti-PKC-α antibody on blotted cell lysate, Protocol A, IMR-32 cells; type: binding; parameters: subcellular localisation of endogenous PKC-α in IMR-32 cells; endogenous in cells; host or cells: IMR-32; settings: Protocol A; for Band Intensity / Inhibition (%) / Relative Intensity (%): IMR-32, Table 4
Experimental: The ability of the peptides to interfere with the binding of a PKC-α-specific monoclonal antibody to PKC-α was determined using the following protocol.
Cell lysates from either IMR-32 (human neuroblastoma) cells or C6Cx43 cells (rat glioma transfected cells overexpressing connexin 43) were obtained using standard protocols and the proteins of the lysate were separated by SDS PAGE electrophoresis and electrotransferred onto a nitrocellulose membrane. […] A primary polyclonal antibody specific for PKC-α (Santa Cruz Biotechnology, Inc., CA) was then added (15 μg/ml) and the membrane incubated for a further 45 minutes. Finally, the primary antibody was detected with a secondary antibody conjugated to alkaline phosphatase using standard procedures. The intensity of the band corresponding to PKC-α was assessed by scanning and densitometry using the Gel-Pro software (Media Cybernetics) to obtain relative band intensities (average of 3 replicas). Control assays were conducted as described above except that blocking buffer without peptide was used.
The results are expressed as relative band intensity and as a percentage of the intensity of the corresponding band in the control assay (“Relative intensity (%)”). “% inhibition” relates to the percentage of the PKC-α band that is inaccessible to the antibody.

PKC-α [2] = biological target: T1, PKC-α; experiment: In vitro competition with anti-PKC-α antibody, Protocol B (peptide added to cell extract before electrophoresis), IMR-32 cells; type: binding; parameters: subcellular localisation of endogenous PKC-α in IMR-32 cells; endogenous in cells; host or cells: IMR-32
Experimental: Peptides PRE 3 and PRE 4 (see Table 3) were tested for their ability to interfere with the binding of isoform-specific polyclonal antibodies (Santa Cruz Biotechnology, Inc.) to PKC-α, PKC-βI or PKC-βII using the general protocol described in Example 3.

PKC-ε = experiment: In vitro competition with anti-PKC-ε antibody, Protocol B, IMR-32 cells; type: binding, human
Experimental: (§1) The ability of the peptides PRE 2 and PRE 3 (see Table 3) to interfere with the binding of a PKC-α-specific polyclonal antibody (Santa Cruz Biotechnology, Inc.) to PKC-α was determined using a modified version of the protocol outlined above in which the test peptide was added directly to the cell extract prior to electrophoresis at a concentration of either 5× or 15× the concentration of the protein applied to each well of the gel for the Western blots (20 μg).
Peptides PRE 2, PRE 3 and PRE 4 (see Table 3) were tested for their ability to interfere with the binding of isoform-specific polyclonal antibodies (Santa Cruz Biotechnology, Inc.) to PKC-ε using the general protocol described in Example 3. Two bands, representing alternate splicing variants of PKC-ε, were identified on the Western blot using this anti-PKC-ε antibody.

PKC-β [3] = experiment: In vitro competition with anti-PKC-β antibody, Protocol A, IMR-32 cells; type: binding, human; settings: for Band Intensity / Inhibition (%) / Relative Intensity (%): PKC-β, IMR-32, Table 6
Experimental: Cell lysates from either IMR-32 (human neuroblastoma) cells or C6Cx43 cells (rat glioma transfected cells overexpressing connexin 43) were obtained using standard protocols and the proteins of the lysate were separated by SDS PAGE electrophoresis and electrotransferred onto a nitrocellulose membrane. The membrane was incubated for 30 minutes in blocking buffer (TBST) containing the test peptide at either 5× or 20× the concentrations of the primary antibody. A primary polyclonal antibody specific for PKC-α (Santa Cruz Biotechnology, Inc., CA) was then added (15 μg/ml) and the membrane incubated for a further 45 minutes. Finally, the primary antibody was detected with a secondary antibody conjugated to alkaline phosphatase using standard procedures. The intensity of the band corresponding to PKC-α was assessed by scanning and densitometry using the Gel-Pro software (Media Cybernetics) to obtain relative band intensities (average of 3 replicas). Control assays were conducted as described above except that blocking buffer without peptide was used.
Peptides PRE 1, PRE 2 and PRE 3 (see Table 3) were tested for their ability to interfere with the binding of a PKC-β-specific polyclonal antibody (Santa Cruz Biotechnology, Inc.) to PKC-β using the general protocol described in Example 1. […] It is worth noting in this regard that PKC-α and PKC-β belong to the same sub-group of PKCs (cPKCs).

PKC-β [4] = experiment: In vitro competition with anti-PKC-β antibody, Protocol B, IMR-32 cells; type: binding, human
Experimental: as §1
Peptides PRE 2 and PRE 3 (see Table 3) were tested for their ability to interfere with the binding of a PKC-β-specific polyclonal antibody (Santa Cruz Biotechnology, Inc.) to PKC-β using the general protocol described in Example 3.

[5] = system: LS180 colon cancer tumours; experiment: LS180 colon cancer tumours in mice, combination with doxorubicin; type: in vivo; settings: mice treated with only doxorubicin (and control cohorts)
Text: Both in vitro and in vivo data support the efficacy of PhGα1 in limiting the effect of multi-drug resistance (MDR) in colorectal drug-resistant tumours when used in combination treatment with chemotherapy. Specifically, studies have shown that establishment of LS180 colon cancer tumours in mice (M1 stage) treated with PhGα1 in combination with an anthracycline chemotherapeutic, doxorubicin, was delayed approximately 100% (p<0.03) versus control cohorts and mice treated with only doxorubicin (28 days compared to 14 days). Results were also observed for tumour transition from the M1 to M2 stage.

Band Intensity (PKC-α [1]; 75 μg peptide): 0.917
Inhibition (%) (PKC-α [1]; 75 μg peptide): 56.1%
Relative Intensity (%) (PKC-α [1]; 75 μg peptide): 43.9%
Band Intensity (PKC-α [1]; 300 μg peptide): 0.192
Inhibition (%) (PKC-α [1]; 300 μg peptide): 90.9%
Relative Intensity (%) (PKC-α [1]; 300 μg peptide): 9.1%
effect on antibody binding to PKC-α (PKC-α [1]): mask the antigenic site of PKC-α
Band Intensity (PKC-α [2]; 100 μg, PKC-α, IMR-32, Table 7): 0.0103
Inhibition (%) (PKC-α [2]; 100 μg, PKC-α, IMR-32, Table 7): 99.9%
Relative Intensity (%) (PKC-α [2]; 100 μg, PKC-α, IMR-32, Table 7): 0.135%
Compound: KDAQNLIGISL-NH2 [PRE 2]
effect on antibody binding to PKC-α (PKC-α [2]): effectively interfered with PKC-α antibody binding to PKC-α
effect on antibody binding to PKC-ε (PKC-ε): some cross-reactivity with PKC-ε
effect on antibody binding to PKC-β (PKC-β [3]): some cross reactivity
Band Intensity (PKC-β [3]; 75 μg): 0.800
Inhibition (%) (PKC-β [3]; 75 μg): 31.0%
Relative Intensity (%) (PKC-β [3]; 75 μg): 69.0%
Band Intensity (PKC-β [3]; 300 μg): 0.403
Inhibition (%) (PKC-β [3]; 300 μg): 65.3%
Relative Intensity (%) (PKC-β [3]; 300 μg): 34.7%
effect on antibody binding to PKC-β (PKC-β [4]): some cross reactivity
Band Intensity (PKC-β [4]; 100 μg, PKC-β, IMR-32, Table 8): 0.0322
Inhibition (%) (PKC-β [4]; 100 μg, PKC-β, IMR-32, Table 8): 54.7%
Relative Intensity (%) (PKC-β [4]; 100 μg, PKC-β, IMR-32, Table 8): 45.3%

Compound: COc1cccc2c1C(=O)c1c(O)c3c(c(O)c1C2=O)C[C@@](O)(C(=O)CO)C[C@@H]3O[C@H]1C[C@H](N)[C@H](O)[C@H](C)O1 [doxorubicin]
time to establishment of LS180 tumours (M1 stage) [5]: 14 days
